Experimental data as given in patent US7008666B2, “Method of inhibiting overactivity of phagocytes or lymphocytes in an individual” (Hormos Nutraceutical Oy Ltd., priority 2001, dated 2006).
pIC50: −log10 of the molar value.

Assays:
Myeloperoxidase = target: T1, Myeloperoxidase (Homo sapiens, UniProt P05164); assay: Myeloperoxidase activity, tetramethylbenzidine oxidation; format: biochemical; conditions: human neutrophils in vitro
T1 construct: And Myeloperoxidase Activity Of Human Neutrophils In Vitro; endogenous in cells; host or cells: human neutrophils isolated from freshly drawn heparinized whole blood
Description: (§1) Isolation of neutrophils: Neutrophils were isolated from 30 mL freshly drawn heparinized whole blood, after dextran sedimentation of erythrocytes for 30 min. The leucocyte rich plasma was layered over an equal volume of Percoll (Sigma) and centrifuged at 400×g for 15 min. Erythrocytes, contaminating the neutrophil pellet, were destroyed by osmotic lysis with 0.87% NH4Cl (pH 7.0). Neutrophils were washed with PBS (pH 7.1) and centrifuged at 200×g for 10 min. Cells were resuspended in fresh HBS (containing 0.8 g NaCl, 0.4 g KCl, 0.06 g Na2HPO4×2 H2O, 0.06 g KH2PO4, 0.1 g MgSO4×7H2O and 1 g glucose in 1000 mL of distilled water; pH adjusted to 7.4 by 7% NaHCO3) and counted before use.
Myeloperoxidase activity: Myeloperoxidase activity was determined by the method of Suzuki et al. (Suzuki, K., Ota, H., Sasagawa, S., Sakatoni, T., Fujikura, T., Ann Biochem 132:345–352, 1983) in which the enzyme catalyzes the oxidation of 3,3′,5,5′-tetramethylbenzidine by H2O2 to yield a blue chromogen with a maximum wavelength of 655 nm. Studies on myeloperoxidase inhibition in vitro were performed by adding test compounds to incubation mixtures in a small volume (2% of incubation volume) of ethanol. […] Based on these experiments, a IC50-value (concentration that under these circumstances produced a 50% inhibition of myeloperoxidase activity) was determined.

[1] = system: Fas receptor on Jurkat cells; assay: Fas receptor surface (FasR) expression, immunostaining; format: cell-based, human; conditions: 50 or 100 μM, versus untreated control
Description: Effect of lignans on Fas receptor surface (FasR) expression: The experiment was performed essentially as described in the literature (Brunner et al., Nature 373, 441–443, 1995). The surface expression of the FasR was measured by immunostaining alive Jurkat cells with an monoclonal anti-FasR antibody (Medical Biological Laboratories Co. Ltd, Japan, clone CH-11) and an anti-mouse antibody labelled with FITC (Alexis Biochemicals Ltd, USA) according to manufacturers instructions. The fluorescence intensity equals the amount of antibody bound to the FasR on the cell membrane.

human neutrophils = assay: Neutrophil oxidative burst, PMA-stimulated, lucigenin chemiluminescence; format: cell-based; conditions: human neutrophils in vitro, PMA stimulus
Description: as §1
Measurement of neutrophil oxidative burst: Production of reactive oxygen species by neutrophils was recorded by chemiluminescent analysis. Chemiluminescence measurements were performed with Bio-Orbit 1251 Luminometer connected to a personal computer with special programs for the assays (Bio-Orbit, Turku, Finland). The protocol for each assay included automatic pipetting of the appropriate reagent that initiated the reaction in all cuvettes. Six or twelve samples were analyzed simultaneously, depending on the assay. Disposable plastic cuvettes were used throughout.
One millilitre of cell suspension (final cell count 10^6 cells/mL) was placed in plastic cuvettes, and the level of resting chemiluminescence was recorded before addition of the stimulus; production of reactive oxygen by neutrophils (oxidative burst) was stimulated by addition of phorbol-myristate-acetate (PMA). The buffer (HBS, pH 7.4) was pipetted in a volume of 0.930 mL in the luminometer cuvette. Test compounds were added to incubation mixtures in a small volume (2% of total incubation volume) of ethanol. […] Fifty microliters of 5 mM lucigenin was added, and the reaction was initiated by 0.020 mL of 0.1 mM PMA at 37° C. The chemiluminescence was measured for about 45 min at 1 min cycles and the area under curve (integral) was calculated. […] Based on these experiments, a IC50-value (concentration that under these circumstances produced a 50% inhibition of neutrophil oxidative burst) was determined.

Monocytes [2] = assay: LPS-induced TNF-α production by monocytes, ELISA; format: cell-based, human; conditions: 100 μM, 24 h pre-incubation, LPS 1 μg/ml for 48 h; IL-10 100 U/ml
Description: Monocytes were isolated from human peripheral blood mononuclear cells by magnetic sorting. The cells were pre-incubated with the lignans matairesinol (as a reference compound) and enterolactone (1–100μM) or interleukin 10 (IL-10) (100 U/ml) for 24 hours before addition of LPS (1 μg/ml) into cell culture. After additional 48 hours the levels of TNF- from culture supernatants were measured by ELISA.

neutrophils = conditions: 6.25 mg daily for 1 week; cited from earlier work
mononuclear cells = conditions: 6.25 mg daily for 1 week; cited from earlier work
Monocytes [3] = conditions: 1200 IU per day for 8 weeks, healthy volunteers; cited from earlier work

T1 sequence (P05164 279-745 limits assumed): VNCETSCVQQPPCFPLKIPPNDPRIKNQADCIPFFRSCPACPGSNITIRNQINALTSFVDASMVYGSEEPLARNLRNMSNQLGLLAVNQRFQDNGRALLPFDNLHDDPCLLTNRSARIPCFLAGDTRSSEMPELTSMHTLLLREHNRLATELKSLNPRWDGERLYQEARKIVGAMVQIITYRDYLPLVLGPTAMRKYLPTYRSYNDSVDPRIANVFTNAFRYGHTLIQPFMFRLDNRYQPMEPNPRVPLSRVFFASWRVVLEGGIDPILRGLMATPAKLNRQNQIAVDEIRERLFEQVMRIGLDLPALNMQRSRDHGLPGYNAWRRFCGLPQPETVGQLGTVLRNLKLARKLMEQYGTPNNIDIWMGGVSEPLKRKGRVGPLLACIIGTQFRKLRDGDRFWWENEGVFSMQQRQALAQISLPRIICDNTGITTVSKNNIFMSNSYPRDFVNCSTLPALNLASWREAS
T1 sequence (P05164 165-273 limits assumed): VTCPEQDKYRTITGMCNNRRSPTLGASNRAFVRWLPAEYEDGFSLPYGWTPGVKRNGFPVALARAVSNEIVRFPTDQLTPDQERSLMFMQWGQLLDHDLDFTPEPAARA

Row | pIC50 (Myeloperoxidase) | pIC50 (human neutrophils; Neutrophil) | Structure (SMILES) | Fas surface expression [1] | other results
1 | 4.35 | 4.96 | COc1cc(C[C@H]2COC(=O)[C@@H]2Cc2ccc(O)c(OC)c2)ccc1O [Matairesinol, matairesinol] | elevated level of Fas protein | LPS-induced TNF-α production compared with positive control IL-10 (Monocytes [2]): at least as effective
2 | 5.17 | 5.28 | COc1cc(CC2C(=O)OCC2C(O)c2ccc(O)c(OC)c2)ccc1O (stereo not shown) [Hydroxymatairesinol, hydroxymatairesinol] | elevated level of Fas protein | –
3 | 5.64 | 5.12 | CC(=O)C(=Cc1cc(O)c(O)c([N+](=O)[O-])c1)C(C)=O [Nitecapone, nitecapone, reference compound] | – | –
4 | – | – | COc1ccccc1OCCNCC(O)COc1cccc2[nH]c3ccccc3c12 (stereo not shown) [carvedilol] | – | decrease of reactive oxygen production by neutrophils (neutrophils): 59%; decrease of reactive oxygen production by mononuclear cells (mononuclear cells): 62%
5 | 4.27 | – | CN(C)CCOc1ccc(/C(=C(/CCCl)c2ccccc2)c2ccc(O)cc2)cc1 [4-OH-toremifene, reference compound] | – | pIC50 (human neutrophils): 5.77
6 | – | – | O=C1OC[C@H](Cc2cccc(O)c2)[C@H]1Cc1cccc(O)c1 [enterolactone] | elevated level of Fas protein | LPS-induced TNF-α production compared with positive control IL-10 (Monocytes [2]): at least as effective
7 | – | – | Cc1c(C)c2c(c(C)c1O)CC[C@@](C)(CCC[C@H](C)CCC[C@H](C)CCCC(C)C)O2 [alpha-tocopherol] | – | decrease in reactive oxygen production by monocytes (Monocytes [3]): 50%–60
